Data set [1] in a line: Average particle size and polydispersity index of lipid nanoparticles (dynamic light scattering). Type of data set: physicochemical. The note with it: Table 4; Fluc mRNA-loaded lipid nanoparticles; TxT-5-5A14/DSPC/chol/PEG-DMG=50/3/47/1.5; SM-102, ALC-0315 or MC3/DSPC/chol/PEG-DMG=50/10/40/1.5 (mol%). The method, then:
(§1) The average particle size (number average value), ζ-average particle size, and polydispersity index (PdI) of the lipid nanoparticles in PBS(-) (pH 7.4), and the zeta potential in 10 mM HEPES buffer (pH 7.4) were measured using an analyzer "Zetasizer Nano ZS ZEN3600" (manufactured by Malvern) utilizing dynamic light scattering.

Data set [2] can be described thus: Zeta potential of lipid nanoparticles. It is filed as physicochemical. The note with it: Table 4; Fluc mRNA-loaded lipid nanoparticles; TxT-5-5A14/DSPC/chol/PEG-DMG=50/3/47/1.5; SM-102, ALC-0315 or MC3/DSPC/chol/PEG-DMG=50/10/40/1.5 (mol%). The method, then:
as §1

The nature of data set [3]: Apparent pKa of lipid nanoparticles (TNS). The note with it: Table 4; Fluc mRNA-loaded lipid nanoparticles; TxT-5-5A14/DSPC/chol/PEG-DMG=50/3/47/1.5; SM-102, ALC-0315 or MC3/DSPC/chol/PEG-DMG=50/10/40/1.5 (mol%).
Procedure: The apparent pKa of the lipid nanoparticles was measured using p-toluenesulfonic acid (TNS). First, TNS (final concentration: 0.75 µM) and lipid nanoparticles (final concentration: 30 µM) were mixed in a buffer (200 mL) adjusted to each pH (pH 3.5 to 9.5). As the buffer, 20 mM citrate buffer, 20 mM sodium phosphate buffer, or 20 mM Tris-HCl buffer containing 130 mM NaCl was used. The fluorescence intensity of the prepared mixture was measured using a fluorescence spectrophotometer (Varioskan Lux, manufactured by Thermo Fisher Scientific) with the settings of λex=321 nm and λem=447 nm. Among the measured values, the highest value and the lowest value were set as 100% and 0% ionization degrees, respectively, and the pH showing a 50% ionization degree was calculated as the apparent pKa. The content ratio (%) of cationically charged pH-sensitive cationic lipid was calculated using the Henderson-Hasselbalch equation.
The subject of another data set is factor VII (F7). The conditions noted are these: mouse liver; siRNA; cited from earlier work.
Data set [4] in a line: Encapsulation rate of lipid nanoparticles (Ribogreen). Type of data set: physicochemical. The note with it: Table 4; Fluc mRNA-loaded lipid nanoparticles; TxT-5-5A14/DSPC/chol/PEG-DMG=50/3/47/1.5; SM-102, ALC-0315 or MC3/DSPC/chol/PEG-DMG=50/10/40/1.5 (mol%). The method, then:
The encapsulation rate of the lipid nanoparticles was determined by measuring the amount of encapsulated nucleic acid (mRNA) using Ribogreen (manufactured by Life Technologies), which is an RNA intercalator. The mRNA amount was quantified based on a calibration curve prepared from a series of diluted mRNA solutions at known concentrations.
Specifically, 10 mM HEPES buffer (pH 7.4), 10 w/v% Triton X-100, and Ribogreen were mixed at 978.8 µL, 20 µL, and 1.25 µL per 10 wells, respectively, to obtain a Triton(+) buffer. A Triton(-) buffer was obtained in replacing Triton X-100 with 10 mM HEPES buffer (pH 7.4). 100 µL/well of the sample was added to a black 96-well plate for fluorescence measurement, and 100 µL/well of Triton(+) buffer or Triton(-) buffer was added. After the plate was gently shaken on a shaking incubator (SI-300, manufactured by AS ONE) (700 rpm, 30 seconds), the fluorescence intensity of each well was measured using a microplate reader (VARIOSKAN LUX, manufactured by Thermo Fisher Scientific) (wavelength Ex/Em=500 nm/525 nm), and the nucleic acid encapsulation rate (%) was calculated.

The pKa is the pH at which an ionisable group is half protonated.

`CCCCC/C=C\C/C=C\CCCCCCCCC(CCCCCCCC/C=C\C/C=C\CCCCC)OC(=O)CCCN(C)C` [MC3, DLin-MC3-DMA, reference compound]: in data set [1], the Pdl came out at 0.20, the “number average particle size” value worked out at 51.8 nm and the ζ-average particle size is recorded as 83.6 nm. For the same compound, in data set [2], the ζ-potential is recorded as -6.8 mV. For the same compound, the pKa in data set [3] was 6.23. For the same compound, the “ED50 in factor VII (F7) knockdown” value in the data set with factor VII (F7) is on record as 0.005 mg siRNA/kg. Besides, in data set [4], the mRNA concentration was 0.021 µg/µL and the mRNA encapsulation rate amounted to 98.8%.

Values taken from patent publication EP4722195A1, “PH-SENSITIVE CATIONIC LIPID AND LIPID NANOPARTICLES” (National University Corporation Hokkaido University, priority 2023, dated 2024).
